Results: patent publication US20260234146A1, “Use of Hypoxia-Inducible Factor-Prolyl Hydroxylase Inhibitor (HIF-PHI) in Rare Anemia” (Kind Pharmaceutical, priority 2023, published 2026)
Marks after values point to notes of the source that are not given here.

Key:
Hbb^d3th/d3th mice = assay: Effect on homozygous β-thalassemia mice (CBC analysis); type: in vivo; design: HGB Hemoglobin content: unit not given here
Description: Throughout the experimental stage, animals were housed in cages in an animal room with 24-hour continuous central air conditioning, temperature set at 20-26° C., relative air humidity set at 40-70%, and a 12-hour light/dark cycle. All animals had free access to food (irradiated sterile feed) and water (prepared by an ultrapure water system). The mouse strain used in the experiment was: Hbb^d3th/d3th mice; female and male, 9-15 weeks old, weighing 25-30 grams. The breeding method involved one male paired with two females. Male mice with the Hbb^d3th/d3th genotype, and female mice with the Hbb^d3th/+ genotype were selected. At one week of age, tissue DNA was extracted from toe clips of offspring. Subsequently, PCR amplification and agarose gel electrophoresis for band separation were used for genotyping. Before the experiment, secondary genotyping was performed on mice of appropriate age, and mice with no significant differences in body weight and appearance were selected as experimental animals. Vehicle 1 (0.1 M meglumine aqueous solution) was prepared by dissolving an appropriate amount of meglumine (0.586 g) in an appropriate amount of deionized water (30 mL) with stirring to prepare the vehicle. After preparation, the vehicle was aliquoted into daily doses and stored at 5±3° C. Before administration, it was stirred at room temperature for at least 10 minutes and stirred continuously during the dosing process.
Comp-1: The required amount of Comp-1 was weighed, completely dissolved in an appropriate volume of Vehicle 1, with stirring and sonicating to form a solution. After visually observing dissolution, vehicle was gradually added to reach the specified volume. Before daily dosing, the formulations (including vehicle) were removed from refrigerator and allowed to reach room temperature. Formulations were stirred at room temperature for at least 10 minutes before administration and stirred throughout the dosing process. The route of administration was oral gavage for all groups, with a dosing volume of 10 mL/kg for all groups, and a dosing frequency of daily for a total of 42 days.
On days 0, 15, 29, and 43 of dosing, 50 μl of blood was collected from orbit of mice, stored at 4° C., and allowed to return to room temperature before analysis. Samples were then gently mixed and added to pre-prepared diluent (blood:diluent=1:6). Data were obtained using the instrument's pre-dilution mode for detection. Data statistics were processed and analyzed using Microsoft Office Excel (Microsoft Corporation, version 2013, Redmond, WA, USA) and GraphPad Prism 7.0. Red blood cell counts and percentages were reported with two significant FIGURES. T-test analysis was used for comparisons of blood cell counts and percentages between groups and within groups at different time points.

MDS model mice = assay: Effect on MDS model mice (RBC, Hb, HCT); type: in vivo, C57 mice
Description: Throughout the experimental stage, animals were housed in cages in an animal room with 24-hour continuous central air conditioning, temperature set at 20-26° C., relative air humidity set at 40-70%, and a 12-hour light/dark cycle. All animals had free access to food and sterilized drinking water. The C57 mice used in the experiment contained three knocked-in genes in their genome: Vav1-Cre, LSL, and c-Myc(T58A/S62E). Only animals positive for all three genes were used in the experiment. Expression of Vav1-Cre can induce cleavage at the LSL site, thereby allowing tTA gene expression. After induction with Doxycycline, tTA can bind to promoter of the c-Myc(T58A/S62E) gene, driving its expression, so that the animals develop an MDS phenotype. When the mice reached approximately 8 weeks of age, modeling commenced. They were fed a special diet (containing 200 mg doxycycline per kg of feed) for 4 weeks. Mice were anesthetized on days 0, 14, and 28, and 70 μl of blood was collected from the orbit to measure RBC, Hb, and HCT levels, confirming successful establishment of the MDS model. Subsequently, the mice were randomly divided into 3 groups, with 10 mice per group: Vehicle control group (0.1 M meglumine), Comp-1 low-dose group (10 mg/kg), and Comp-1 high-dose group (30 mg/kg). The dosing or vehicle volume was 6.67 mL/kg. The dosing or vehicle frequency for each group was oral gavage three times per week (TIW) for 4 consecutive weeks. That is, from week 4 to week 8 constituted the treatment period. Mice were anesthetized 14 days (experimental week 6) and 28 days (experimental week 8) after the start of dosing, and 70 μl of blood was collected from the orbit. Collected blood samples were placed in heparin-anticoagulant tubes, and RBC, Hb, and HCT levels in the blood were measured. After blood collection at the final time point for each animal, the animals were euthanized, and corresponding organ tissues were collected for storage and potential future use. Detection instrument: Element HT5 Veterinary Hematology Analyzer; Supplier: HESKA. Data analysis was performed using GraphPad Prism 9.0.

[1] = 10 mg/kg group, Before dosing Week 4
[2] = 10 mg/kg group, Pre-modeling Week 0
[3] = 10 mg/kg oral TIW, After 2 weeks of dosing Week 6
[4] = 10 mg/kg oral TIW, After 4 weeks of dosing Week 8
[5] = 30 mg/kg group, Before dosing Week 4
[6] = 30 mg/kg group, Pre-modeling Week 0
[7] = 30 mg/kg oral TIW, After 2 weeks of dosing Week 6
[8] = 30 mg/kg oral TIW, After 4 weeks of dosing Week 8

## O=C(O)CNC(=O)C1=C(O)C2(CCCC2)n2c(ccc2-c2ccccc2)C1=O [Comp-1, (6′-hydroxy-8′-oxo-3′-phenyl-8′H-spiro[cyclopentane-1,5′-indolizine]-7′-carbonyl)glycine]
Hbb^d3th/d3th mice; 5 mpk group, Day 0 (pre-dose)
  HCT Hematocrit: 27.58%
  HGB Hemoglobin content: 74.60
  RBC Red Blood Cell Count: 7.90 10^12/L
Hbb^d3th/d3th mice; 5 mpk oral daily, Day 15
  HCT Hematocrit: 31.16# %
  HGB Hemoglobin content: 81.20
  RBC Red Blood Cell Count: 8.35 10^12/L
Hbb^d3th/d3th mice; 5 mpk oral daily, Day 29
  HCT Hematocrit: 32.10## %
  HGB Hemoglobin content: 83.00
  RBC Red Blood Cell Count: 8.59 10^12/L
Hbb^d3th/d3th mice; 5 mpk oral daily, Day 43
  HCT Hematocrit: 31.04## %
  HGB Hemoglobin content: 80.20
  RBC Red Blood Cell Count: 8.58 10^12/L
Hbb^d3th/d3th mice; 10 mpk group, Day 0 (pre-dose)
  HCT Hematocrit: 26.20%
  HGB Hemoglobin content: 74.80
  RBC Red Blood Cell Count: 7.90 10^12/L
Hbb^d3th/d3th mice; 10 mpk oral daily, Day 15
  HCT Hematocrit: 31.92## %
  HGB Hemoglobin content: 83.60
  RBC Red Blood Cell Count: 8.60## 10^12/L
Hbb^d3th/d3th mice; 10 mpk oral daily, Day 29
  HCT Hematocrit: 33.02## %
  HGB Hemoglobin content: 88.04
  RBC Red Blood Cell Count: 9.15# 10^12/L
Hbb^d3th/d3th mice; 10 mpk oral daily, Day 43
  HCT Hematocrit: 33.36### %
  HGB Hemoglobin content: 89.40
  RBC Red Blood Cell Count: 9.30## 10^12/L
Hbb^d3th/d3th mice; 15 mpk group, Day 0 (pre-dose)
  HCT Hematocrit: 27.48%
  HGB Hemoglobin content: 75.00
  RBC Red Blood Cell Count: 7.77 10^12/L
Hbb^d3th/d3th mice; 15 mpk oral daily, Day 15
  HCT Hematocrit: 34.50## %
  HGB Hemoglobin content: 90.17
  RBC Red Blood Cell Count: 8.95# 10^12/L
Hbb^d3th/d3th mice; 15 mpk oral daily, Day 29
  HCT Hematocrit: 36.13### %
  HGB Hemoglobin content: 97.5
  RBC Red Blood Cell Count: 9.72#### 10^12/L
Hbb^d3th/d3th mice; 15 mpk oral daily, Day 43
  HCT Hematocrit: 36.10#### %
  HGB Hemoglobin content: 94.83
  RBC Red Blood Cell Count: 9.45#### 10^12/L
MDS model mice; [1]
  HCT Hematocrit: 28.12%
  Hb Hemoglobin content: 9.52 g/dL
  RBC Red Blood Cell Count: 6.03 M/μL
MDS model mice; [2]
  HCT Hematocrit: 43.35%
  Hb Hemoglobin content: 14.90 g/dL
  RBC Red Blood Cell Count: 9.00 M/μL
MDS model mice; [3]
  HCT Hematocrit: 34.36%
  Hb Hemoglobin content: 10.97 g/dL
  RBC Red Blood Cell Count: 6.33 M/μL
MDS model mice; [4]
  HCT Hematocrit: 37.52%
  Hb Hemoglobin content: 11.77 g/dL
  RBC Red Blood Cell Count: 7.17 M/μL
MDS model mice; [5]
  HCT Hematocrit: 28.01%
  Hb Hemoglobin content: 9.54 g/dL
  RBC Red Blood Cell Count: 5.90 M/μL
MDS model mice; [6]
  HCT Hematocrit: 43.32%
  Hb Hemoglobin content: 14.37 g/dL
  RBC Red Blood Cell Count: 9.01 M/μL
MDS model mice; [7]
  HCT Hematocrit: 43.13%
  Hb Hemoglobin content: 13.56 g/dL
  RBC Red Blood Cell Count: 7.11 M/μL
MDS model mice; [8]
  HCT Hematocrit: 47.41%
  Hb Hemoglobin content: 14.91 g/dL
  RBC Red Blood Cell Count: 8.46 M/μL
